The experiment has as its system P. berghei NS (resistant to chlorquine). The experiment is described as follows: 4-day suppressive test (blood schizontocidal activity), chess-board / isobologram analysis. Type of experiment: in vivo, Plasmodium berghei. The following applies: for group mean of parasitaemia as of control: male Swiss mice, D + 4, ± standard error; for parasitaemia: Arteether alone, male mouse, Table II (extended doses); for ED50 / ED90: Plasmodium berghei, in Mus musculus, po. The protocol: The evaluation of blood schizontocidal activities was carried out following the procedure described herein after using the Chloroquine-resistant strain of P. berghei (NS) strain. (Chawira A. N., et al. 1987, Trans, R. Soc. Trop. Med. Hyg. 81 : 554-558).
The methodology followed in the present study was adopted form "4- day suppressive test" (ref. Peters, W.; 1987, Chemotherapy and Drug Resistance in Malaria, Vol. 1, p 111). The experimental data has been analysed by Chess Board Method in the form of an isobologram, (Ref. Chawira A. N., and Warhurst D. C.; 1987, J. Trop. Med. Hyg. 90 : 1-8). ED₅₀ and ED₉₀ was determined using a log-probit method.
Host .. Swiss Mice (20-22 gms) Sex .. Male Parasit .. P. berghei NS (resistant to chlorquine) Route of Infection .. Intravenous Route of drug Administration .. per os
Artheether : A few drops of Kardi oil and Tween^R 80 were added to Arteether to make a paste, followed by 0.5 % Tylose^R (Carboxy methyl cellulose) solution. A homogenous suspension was prepared using a tissue homogenizer in Teflon^R coated glass tube. […] Mefloquine HCl : A solution was prepared in 0.5 % Tylose using a tissue homogenizer.
Drug was administered as follows: (+ 2 H, 24 H, 48 H, 72 H) Each day one dose for 4 days
Slides were drawn from individual mouse and stained with Giemsa on D + 4. The slides were examined under oil immersion lens and parasitaemia was recorded from 15 fields at random. The average of infected and uninfected erythrocytes was determined for each animal. Finally the average parasitaemia of the whole group was determined and considered as 100 % for comparison purposes with the treated group.
At least 5000 to 7500 erythrocytes were examined at random to determine the parasitaemia. In certain cases, where parasitaemia was extremely low 10000 to 15000 erythrocytes were examined.

Where two headings read alike, the source gives them in different places.

As to `CCO[C@H]1O[C@@H]2O[C@@]3(C)CC[C@H]4[C@H](C)CC[C@@H]([C@H]1C)[C@@]24OO3` [Arteether], it took a dose of 2.8 mg/kg to reach the 50% effect level (ED50) and the ED90 turned out to be 5.2 mg/kg. The “group mean of parasitaemia as of control” value (Arteether 0.25 mg/kg X 4, p.o., no Quinine) worked out at 90 ± 13.9. Further, the “group mean of parasitaemia as of control” value (Arteether 0.5 mg/kg X 4, p.o., no Quinine) is 87 ± 10.8. Also, under “Arteether 1.0 mg/kg X 4, p.o., no Quinine”, the “group mean of parasitaemia as of control” value was 84 ± 10.8. Also, the “group mean of parasitaemia as of control” value (Arteether 2.0 mg/kg X 4, p.o., no Quinine) was 77 ± 1.27. In addition, under “Dose 2.0 mg/kg X 4”, the parasitaemia stood at 82. This compound had a parasitaemia (Dose 3.0 mg/kg X 4) of 57. Further, the parasitaemia (Dose 4.0 mg/kg X 4) is given as 25. The parasitaemia (Dose 5.0 mg/kg X 4) was found to be 12. Besides, the ED50 (read-out: ED50 of Arteether) amounted to 2.8 mg/kg. For the same compound, under “read-out: ED90 of Arteether”, the ED90 is 5.2 mg/kg.

For the compound `C=C[C@H]1C[N@@]2CC[C@H]1C[C@H]2[C@H](O)c1ccnc2ccc(OC)cc12` [Quinine], the median effective dose (ED50) (read-out: ED50 of Quinine) was 61 mg/kg. Besides, the ED90 (read-out: ED90 of Quinine) worked out at 110 mg/kg. The “group mean of parasitaemia as of control” value reads like this: (Quinine 25 mg/kg X 4, p.o., no Arteether) 92 ± 2.36; (Quinine 37.5 mg/kg X 4, p.o., no Arteether) 85 ± 5.8; (Quinine 50 mg/kg X 4, p.o., no Arteether) 70 ± 11.8.

The values are drawn from EP0464233A1, “Pharmaceutical combinations against malaria” (priority 1990, dated 1992).
